Experimental data: US8357678B2, “Chair ruthenium complexes and their use as anticancer agents” (Guangdong Pharmaceutical University, priority 2007, dated 2013)

How the values were obtained:
Assay in all cases: MTT assay, inhibitory activity against growth of cancer cells
Assay type in all cases: cell-based
[1] = tested on: human intestinal adenocarcinoma cell line HCT-8; settings: 72 h incubation
Procedure: (§1) The inhibitory activity of these chair ruthenium(II) complexes have been evaluated by MTT assay by using 5-fluorouracil (5-Fu) as positive control. Human hepatocarcinoma cell line Bel-7402, human intestinal adenocarcinoma cell line HCT-8 and Human lung adenocarcinoma epithelial cell line A-549 were supplied by the Institute of Materia Medica, Chinese Academy of Medical Sciences & Peking Union Medical College. The determination of the cytotoxicity (dark toxicity) of the compound was carried out in parallel with the phototoxicity determination following the same procedure, with the exclusion of the irradiation.
(§2) General method: Cells were diluted to 5000/ml by PRMI1640 minimal essential medium with 10% fetal calf serum (FCS), plated at 100 μl cells per well in a 96-well Corning microtiter plate, and incubated at 37° C. with 5% CO2 for 24 h. After cell was covered a single layer, drugs (10 μl) was added, and PRMI1640 minimal essential medium was supplied to make the total volume to 200 μl. After incubated for another 72 h at 37° C., 5% CO2, the medium was removed and freshly prepared MTT dissolved in DMSO (200 μl) was added, and the OD value was recorded on ELISA Reader at 544 nm. The inhibitory activity of ruthenium complexes was calculated according to equation: Inhibitory activity(%)=([…])/(ODcontrol−ODblank)×100%.

[2] = tested on: Human lung adenocarcinoma epithelial cell line A-549; settings: Dosage 5 μg/ml, 72 h incubation
Procedure: as §1, §2

[3] = tested on: human hepatocarcinoma cell line Bel-7402; settings: 72 h incubation
Procedure: as §1, §2

| Compound | Inhibitory activity (%) HCT-8 ([1]; Dosage 5 μg/ml) [%] | Inhibitory activity (%) HCT-8 ([1]; Dosage 50 μg/ml) [%] | Inhibitory activity (%) A-549 [2] [%] | Inhibitory activity (%) BEL-7402 ([3]; Dosage 5 μg/ml) [%] | Inhibitory activity (%) BEL-7402 ([3]; Dosage 50 μg/ml) [%] |
| --- | --- | --- | --- | --- | --- |
| F[P-](F)(F)(F)(F)F.F[P-](F)(F)(F)(F)F.c1cc[n+]2c(c1)-c1cccc[n+]1[Ru-4]213([n+]2ccccc2-c2cccc[n+]21)[n+]1cccc2c4nc(-c5ccc6c(c5)OCCO6)[nH]c4c4ccc[n+]3c4c21 [Λ-3, Λ-[Ru(bpy)2(IPBH)](PF6)2] | 2.1 | 39.1 | −0.92 | 3.0 | 44.3 |
| Λ-[Ru(bpy)2(IPBP)](PF6)2 [Λ-2] | 2.23 | 53.7 | −0.52 | 0.19 | 64.9 |
| FC(F)(F)c1ccccc1-c1nc2c3ccc[n+]4c3c3c(ccc[n+]3[Ru-4]435([n+]4ccccc4-c4cccc[n+]43)[n+]3ccccc3-c3cccc[n+]35)c2[nH]1.F[P-](F)(F)(F)(F)F.F[P-](F)(F)(F)(F)F [Δ-1, Δ-[Ru(bpy)2(tFPIP)](PF6)2] | 81.6 | 86.2 | 62.0 | 85.0 | 88.3 |
| F[P-](F)(F)(F)(F)F.F[P-](F)(F)(F)(F)F.c1cc[n+]2c(c1)-c1cccc[n+]1[Ru-4]213([n+]2ccccc2-c2cccc[n+]21)[n+]1ccccc1-c1[nH]c2cc4ccccc4cc2[n+]13 [Δ-4, Δ-[Ru(bpy)2(PYNI)](PF6)2] | 1.8 | 38.6 | −8.2 | 2.8 | 36.0 |
| FC(F)(F)c1ccccc1-c1nc2c3ccc[n+]4c3c3c(ccc[n+]3[Ru-4]435([n+]4ccccc4-c4cccc[n+]43)[n+]3ccccc3-c3cccc[n+]35)c2[nH]1.F[P-](F)(F)(F)(F)F.F[P-](F)(F)(F)(F)F [Λ-1, Λ-[Ru(bpy)2(tFPIP)](PF6)2] | 83.0 | 88.9 | 56.4 | 85.2 | 88.8 |
| F[P-](F)(F)(F)(F)F.F[P-](F)(F)(F)(F)F.c1cc[n+]2c(c1)-c1cccc[n+]1[Ru-4]213([n+]2ccccc2-c2cccc[n+]21)[n+]1ccccc1-c1[nH]c2cc4ccccc4cc2[n+]13 [Λ-4, Λ-[Ru(bpy)2(PYNI)](PF6)2] | 3.6 | 21.4 | −2.3 | 4.4 | 22.6 |
| Δ-[Ru(bpy)2(IPBP)](PF6)2 [Δ-2] | 13.1 | 83.4 | 18.5 | 9.6 | 86.8 |
